Assay results published in the NIST ThermoML archive (doi:10.1021/je2006743).

Conditions: 101.33 kPa, Liquid; for viscosity: Falling or rolling sphere viscometry; for mass density: Vibrating tube method

O=S(=O)([N-]S(=O)(=O)C(F)(F)F)C(F)(F)F.OCCC[n+]1ccccc1
Conditions | mass density [kg/m3] | viscosity [mPa·s]
293.15 K | 1551 | 160
303.15 K | – | 92.2
303.24 K | 1541.7 | –
313.14 K | 1532.1 | –
313.15 K | – | 57.7
323.15 K | 1522.9 | 38.2
333.15 K | – | 29.4
333.16 K | 1513.8 | –
343.13 K | 1504.7 | –
343.15 K | – | 22.8

CCCCCC[n+]1cccc(C)c1.O=S(=O)([N-]S(=O)(=O)C(F)(F)F)C(F)(F)F
Conditions | mass density [kg/m3] | viscosity [mPa·s]
293.14 K | 1356.1 | –
293.15 K | – | 105
303.15 K | – | 64.2
303.17 K | 1347.1 | –
313.14 K | 1338.4 | –
313.15 K | – | 41.2
323.13 K | 1329.7 | –
323.15 K | – | 28.3
333.15 K | – | 22.5
333.22 K | 1321 | –
343 K | 1312.9 | –
343.15 K | – | 17.5

CCCC[N+]1(C)CCCC1.O=S(=O)([N-]S(=O)(=O)C(F)(F)F)C(F)(F)F
Conditions | mass density [kg/m3] | viscosity [mPa·s]
293.09 K | 1398 | –
293.15 K | – | 101
302.89 K | 1389.2 | –
303.15 K | – | 63.8
313.15 K | – | 41.8
313.59 K | 1379.8 | –
323.15 K | – | 28.9
323.38 K | 1371.3 | –
332.57 K | 1363.1 | –
333.15 K | – | 23.5
342.84 K | 1354.6 | –
343.15 K | – | 18.6

CC(=O)OCC[N+](C)(C)C.O=S(=O)([N-]S(=O)(=O)C(F)(F)F)C(F)(F)F
Conditions | mass density [kg/m3] | viscosity [mPa·s]
293.15 K | – | 309
293.18 K | 1486.9 | –
303.15 K | – | 162
303.19 K | 1477.3 | –
313.15 K | – | 90.7
313.21 K | 1468 | –
323.15 K | – | 56.8
323.16 K | 1458.8 | –
333.15 K | – | 38.5
333.19 K | 1449.7 | –
343.15 K | – | 27.5
343.21 K | 1440.5 | –

CCC[N+](C)(C)CCO.O=S(=O)([N-]S(=O)(=O)C(F)(F)F)C(F)(F)F
Conditions | mass density [kg/m3] | viscosity [mPa·s]
293.15 K | – | 160
293.16 K | 1453.6 | –
303.15 K | – | 92.7
303.16 K | 1444.5 | –
313.11 K | 1435.7 | –
313.15 K | – | 58.1
323.14 K | 1426.8 | –
323.15 K | – | 38.7
333.15 K | – | 30.3
333.16 K | 1418.1 | –
343.14 K | 1408.7 | –
343.15 K | – | 22.9

CCCC[N+](C)(C)C.O=S(=O)([N-]S(=O)(=O)C(F)(F)F)C(F)(F)F [butyltrimethylammonium bis(trifluoromethylsulfonyl)imide]
Conditions | mass density [kg/m3] | viscosity [mPa·s]
293.15 K | – | 138
293.26 K | 1396.5 | –
303.15 K | – | 82.3
303.22 K | 1387.6 | –
313.03 K | 1379 | –
313.15 K | – | 52.2
323.13 K | 1370 | –
323.15 K | – | 35.5
333.15 K | – | 27.9
333.17 K | 1361.3 | –
343.15 K | – | 21.5
343.18 K | 1352.8 | –
